Experimental data taken from the NIST ThermoML archive (doi:10.1016/j.jct.2012.01.023).

What was measured:
[1] = xn = mol fraction of the nth substance listed; details: 298.15 K, Drop volume
[2] = for surface tension liquid-gas: 298.15 K, Drop volume

CCOS(=O)(=O)[O-].CCn1cc[n+](C)c1 [1-ethyl-3-methylimidazolium ethyl sulfate] + CCO
[1]
Details | surface tension liquid-gas [mN/m]
x1 = 0.0988 | 24.18
x1 = 0.2056 | 26.37
x1 = 0.3025 | 28.52
x1 = 0.3989 | 30.68
x1 = 0.4999 | 32.99
x1 = 0.5984 | 35.4
x1 = 0.703 | 38.12
x1 = 0.8252 | 41.48
x1 = 0.9048 | 43.81
x1 = 1 | 47.16

CCCCOS(=O)(=O)[O-].CC[n+]1ccn(C)c1 [3-ethyl-1-methylimidazolium butyl sulfate] + O
[1]
Details | surface tension liquid-gas [mN/m]
x1 = 0.0389 | 44.48
x1 = 0.0403 | 45.93
x1 = 0.0579 | 40.83
x1 = 0.0602 | 41.7
x1 = 0.0758 | 39.85
x1 = 0.0805 | 39.96
x1 = 0.0934 | 39.08
x1 = 0.0987 | 39.17
x1 = 0.1004 | 39.42
x1 = 0.101 | 39.84
x1 = 0.12 | 39.74
x1 = 0.133 | 40.29
x1 = 0.1464 | 40.85
x1 = 0.1716 | 41.83
x1 = 0.1947 | 41.59
x1 = 0.2004 | 41.48
x1 = 0.2585 | 40.83
x1 = 0.2973 | 40.81
x1 = 0.3957 | 40.04
x1 = 0.4017 | 40.31
x1 = 0.4764 | 39.93
x1 = 0.4992 | 40.01
x1 = 0.5868 | 39.89
x1 = 0.703 | 39.82
x1 = 0.7997 | 39.77
x1 = 0.9034 | 39.67
x1 = 1 | 39.62

O [water]
Details | surface tension liquid-gas [mN/m]
[2] | 71.35

CCCCCCOS(=O)(=O)[O-].CC[n+]1ccn(C)c1 [3-ethyl-1-methyl-1H-imidazolium hexyl sulfate] + O
[1]
Details | surface tension liquid-gas [mN/m]
x1 = 0.0005 | 62.58
x1 = 0.0008 | 58.45
x1 = 0.002 | 49.54
x1 = 0.005 | 42.13
x1 = 0.0196 | 40.27
x1 = 0.0396 | 39.55
x1 = 0.0602 | 38.88
x1 = 0.0797 | 38.25
x1 = 0.0997 | 37.79
x1 = 0.1997 | 36.16
x1 = 0.3009 | 35.59
x1 = 0.4034 | 35.25
x1 = 0.4957 | 35.05
x1 = 0.5943 | 34.95
x1 = 0.705 | 34.87
x1 = 0.7893 | 34.82
x1 = 0.8997 | 34.77
x1 = 1 | 34.77

CCOS(=O)(=O)[O-].CCn1cc[n+](C)c1 [1-ethyl-3-methylimidazolium ethyl sulfate]
Details | mass density [kg/m3]
[2], 298.1 K, 101.33 kPa, Liquid, Vibrating tube method | 1238.3

Details | surface tension liquid-gas [mN/m]
[2] | 47.13

CCCCCCCCOS(=O)(=O)[O-].CCn1cc[n+](C)c1 [1-ethyl-3-methylimidazolium octyl sulfate] + O
[1]
Details | surface tension liquid-gas [mN/m]
x1 = 0.0002 | 56.92
x1 = 0.0007 | 42.45
x1 = 0.005 | 37.84
x1 = 0.011 | 37.19
x1 = 0.0198 | 36.69
x1 = 0.0349 | 35.3
x1 = 0.0506 | 34.96
x1 = 0.0774 | 33.87
x1 = 0.0937 | 33.62
x1 = 0.2846 | 31.01
x1 = 0.4 | 30.48
x1 = 0.5127 | 30.72
x1 = 0.5677 | 30.67
x1 = 0.6347 | 30.71
x1 = 0.6934 | 30.74
x1 = 0.7018 | 30.77
x1 = 0.7373 | 30.7
x1 = 0.766 | 30.81
x1 = 0.8287 | 30.71
x1 = 0.8904 | 30.79
x1 = 1 | 30.91
